Experimental data reported in ChEMBL document CHEMBL3085750, “Discovery of 2-methylpyridine-based biaryl amides as γ-secretase modulators for the treatment of Alzheimer's disease” (Bioorg Med Chem Lett, 2013).
Active and inactive are the calls of the source. The rule behind the calls is not given here.

Experiments:
[1] = Ratio of drug level in brain to plasma in mouse at 10 mg/kg, po after 2 hrs; format: ADME, organism-based; design: dose 10 mg/kg, route oral; conditions: read-out: BPR
Cytochrome P450 2D6 = Cytochrome P450 2D6 (Homo sapiens, UniProt P10635); assay: Inhibition of CYP2D6 (unknown origin) after 10 mins; format: ADME
Chain of Cytochrome P450 2D6 (P10635 whole entry): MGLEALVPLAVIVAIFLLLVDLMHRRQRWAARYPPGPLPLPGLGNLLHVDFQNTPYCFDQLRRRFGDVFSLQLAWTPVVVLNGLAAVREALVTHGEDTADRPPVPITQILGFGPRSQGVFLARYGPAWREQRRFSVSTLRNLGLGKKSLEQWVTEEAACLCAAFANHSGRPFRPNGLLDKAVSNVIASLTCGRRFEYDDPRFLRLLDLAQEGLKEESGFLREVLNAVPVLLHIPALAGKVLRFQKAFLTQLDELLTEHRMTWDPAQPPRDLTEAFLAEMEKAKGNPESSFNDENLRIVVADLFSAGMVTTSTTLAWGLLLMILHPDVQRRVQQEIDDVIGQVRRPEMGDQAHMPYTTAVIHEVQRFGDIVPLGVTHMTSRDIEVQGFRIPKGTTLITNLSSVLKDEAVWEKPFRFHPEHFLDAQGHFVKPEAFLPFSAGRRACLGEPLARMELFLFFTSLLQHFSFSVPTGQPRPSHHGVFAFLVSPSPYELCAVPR

Cytochrome P450 3A4 = Cytochrome P450 3A4 (Homo sapiens, UniProt P08684); assay: Inhibition of CYP3A4 (unknown origin) after 5 mins; format: ADME
Chain of Cytochrome P450 3A4 (P08684 whole entry): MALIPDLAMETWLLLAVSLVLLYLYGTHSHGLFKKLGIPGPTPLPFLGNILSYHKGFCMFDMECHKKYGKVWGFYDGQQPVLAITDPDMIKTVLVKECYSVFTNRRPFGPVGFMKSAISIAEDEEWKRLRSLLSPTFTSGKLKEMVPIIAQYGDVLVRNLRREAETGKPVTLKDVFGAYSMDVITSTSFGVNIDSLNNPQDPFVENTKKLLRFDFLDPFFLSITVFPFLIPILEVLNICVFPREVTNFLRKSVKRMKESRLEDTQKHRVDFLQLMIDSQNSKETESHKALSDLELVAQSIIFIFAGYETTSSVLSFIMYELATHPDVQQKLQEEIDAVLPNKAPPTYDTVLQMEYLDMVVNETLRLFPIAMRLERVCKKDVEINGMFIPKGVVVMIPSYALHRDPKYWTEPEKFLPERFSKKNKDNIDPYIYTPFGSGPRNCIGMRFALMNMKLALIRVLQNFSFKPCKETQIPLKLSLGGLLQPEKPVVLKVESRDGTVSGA

[2] = Metabolic stability in human liver microsomes at 1 uM after 30 mins; format: ADME; conditions: read-out: Stability
[3] = Metabolic stability in rat liver microsomes at 1 uM after 30 mins; format: ADME; conditions: read-out: Stability
Gamma-secretase [4] = assay: Modulation of gamma-secretase in HEK293 cells expressing guinea pig Swedish mutant SFV-APP695sw assessed as inhibition of amyloid beta-42 production after 16 to 18 hrs by HTRF assay; format: cell-based, Homo sapiens
[5] = molecular target: Gamma-secretase (Homo sapiens) (UniProt Q96BI3+Q9NZ42+Q8WW43+P49768+Q92542+P49810); assay: Modulation of gamma-secretase in HEK293 cells expressing guinea pig Swedish mutant SFV-APP695sw assessed as inhibition of amyloid beta-42 production at 10 uM after 16 to 18 hrs by HTRF assay relative to control; format: cell-based
[6] = Ratio of drug level in brain to plasma in Sprague-Dawley rat; format: ADME, cell-free; conditions: read-out: BPR
Rattus norvegicus [7] = assay: Reduction of amyloid beta-42 level in Sprague-Dawley rat CSF at 100 mg/kg, po after 4 hrs by immunoassay relative to control; format: functional
Gamma-secretase [8] = assay: Modulation of gamma-secretase in HEK293 cells expressing guinea pig Swedish mutant SFV-APP695sw assessed as inhibition of amyloid beta-40 production after 16 to 18 hrs by HTRF assay; format: cell-based, Homo sapiens
Plasma [9] = assay: Unbound plasma concentration in Sprague-Dawley rat; format: ADME, cell-free
[10] = Plasma protein binding in Sprague-Dawley rat; format: ADME, cell-free; conditions: read-out: PPB (converted)
[11] = AUC (0 to 24 hrs) in Sprague-Dawley rat at 3 mg/kg at day 4; format: ADME, organism-based; design: time < 24 hr, dose 3 mg/kg; conditions: plasma
[12] = AUC (0 to 24 hrs) in Sprague-Dawley rat at 3 mg/kg at day 1; format: ADME, organism-based; design: time < 24 hr, dose 3 mg/kg; conditions: plasma
Rattus norvegicus [13] = assay: Toxicity in Sprague-Dawley rat assessed as increase in neutrophils and monocytes in peripheral blood at 1 to 3 mg/kg after 4 days by light microscopic analysis; format: organism-based; design: dose 1-3 mg/kg; conditions: in vivo, 96 h
Rattus norvegicus [14] = assay: Toxicity in Sprague-Dawley rat assessed as presence of mixed inflammatory infiltrate with mild villus blunting and fusion in duodenum at 1 to 3 mg/kg after 4 days by light microscopic analysis; format: organism-based; design: dose 1-3 mg/kg; conditions: in vivo, other, 96 h
Rattus norvegicus [15] = assay: Toxicity in Sprague-Dawley rat assessed as thickening of hypertrophic zone of tibial physis at 1 to 3 mg/kg after 4 days by light microscopic analysis; format: organism-based; design: dose 1-3 mg/kg; conditions: in vivo, 96 h
Rattus norvegicus [16] = assay: Toxicity in Sprague-Dawley rat assessed as increased goblet cell numbers in colon at 1 to 3 mg/kg after 4 days by light microscopic analysis; format: organism-based; design: dose 1-3 mg/kg; conditions: in vivo, 96 h
Rattus norvegicus [17] = assay: Toxicity in Sprague-Dawley rat assessed as increased goblet cell numbers in duodenum at 1 to 3 mg/kg after 4 days by light microscopic analysis; format: organism-based; design: dose 1-3 mg/kg; conditions: in vivo, other, 96 h
Rattus norvegicus [18] = assay: Toxicity in Sprague-Dawley rat assessed as thymic cortical lymphoid depletion at 1 to 3 mg/kg after 4 days by light microscopic analysis; format: organism-based; design: dose 1-3 mg/kg; conditions: in vivo, 96 h
Rattus norvegicus [19] = assay: Toxicity in Sprague-Dawley rat assessed as marginal zone lymphoid depletion in spleen at 1 to 3 mg/kg after 4 days by light microscopic analysis; format: organism-based; design: dose 1-3 mg/kg; conditions: in vivo, 96 h
Rattus norvegicus [20] = assay: Reduction of amyloid beta-42 level in Sprague-Dawley rat CSF at 3 mg/kg after 24 hrs by immunoassay relative to control; format: functional; design: scale not given: the % may be the effect or the level left
Rattus norvegicus [21] = assay: Reduction of amyloid beta-42 level in Sprague-Dawley rat CSF at 3 mg/kg after 4 hrs by immunoassay relative to control; format: functional; design: scale not given: the % may be the effect or the level left
Rattus norvegicus [22] = assay: Reduction of amyloid beta-42 level in Sprague-Dawley rat CSF at 1 mg/kg after 4 hrs by immunoassay relative to control; format: functional; design: scale not given: the % may be the effect or the level left
Plasma [23] = assay: Unbound plasma concentration in Sprague-Dawley rat at 1 mg/kg; format: ADME, organism-based; design: dose 1 mg/kg; conditions: in vivo
[24] = Drug level in Sprague-Dawley rat CSF; format: ADME, Cerebrospinal fluid; conditions: in vivo, read-out: Ct
[25] = Apparent permeability in pig LLC-PK1 cells; format: ADME, cell-based, Sus scrofa

| Compound | IC50 (Cytochrome P450 2D6) [nM] | IC50 (Cytochrome P450 3A4) [nM] | microsomal CLint at 1 µM [2] [µL/min/mg] | microsomal CLint at 1 µM [3] [µL/min/mg] | IC50 (Gamma-secretase [4]) [nM] | also measured |
| --- | --- | --- | --- | --- | --- | --- |
| O=S(=O)(Nc1ccc(-n2ccnc2)cc1)c1cc(Cl)cc(Cl)c1 | 100 | 100 | < 14 | < 14 | 2100 | Kp at 2 h [1]: 0.07 |
| Cc1nccn1-c1ccc(NS(=O)(=O)c2cc(Cl)cc(Cl)c2)cc1 | > 27000 | > 27000 | 22 | 113 | 9400 | – |
| Cc1cc(-c2ccc(NC(=O)c3cc(C(F)(F)F)cc(C(F)(F)F)c3)cc2)ccn1 | > 27000 | > 27000 | 106 | 14 | > 10000 | inhibition [5]: 58% |
| Cc1cc(-c2ccc(NC(=O)[C@@H](C)c3cc(C(F)(F)F)cc(C(F)(F)F)c3)cc2)ccn1 | 2600 | > 27000 | < 14 | < 14 | > 10000 | Kp [6]: 2; Activity (Rattus norvegicus [7]): inactive |
| Cc1cc(-c2ccc(NC(=O)c3cc(Cl)cc(Cl)c3)cc2)ccn1 | > 27000 | > 27000 | 91 | 19 | > 10000 | inhibition [5]: 53%; Kp at 2 h [1]: 1.46 |
| C=Cc1cc(-c2ccc(NS(=O)(=O)c3cc(C(F)(F)F)cc(C(F)(F)F)c3)cc2)ccn1 | 700 | 4500 | 193 | 169 | 1260 | – |
| Cc1cc(-c2ccc(NS(=O)(=O)c3cc(C(F)(F)F)cc(C(F)(F)F)c3)cc2)ccn1 | 2000 | > 27000 | 399 | 290 | 280 | – |
| O=S(=O)(Nc1ccc(-c2cncnc2)cc1)c1cc(Cl)cc(Cl)c1 | 7200 | 3500 | 45 | > 399 | > 10000 | – |
| CCN(CC)c1ccc(C)c(Nc2nc(-c3ccc(-n4cnc(C)c4)cc3)cs2)c1 | – | – | – | – | 130 | IC50 (Gamma-secretase [8]): 560 nM |
| C[C@H](NC(=O)[C@@H](O)c1cc(F)cc(F)c1)C(=O)N[C@@H]1C(=O)N(C)c2ccccc2-c2ccccc21 | – | – | – | – | – | Cp(f) (Plasma [9]): 1.2 nM; fraction unbound [10]: 0.053; AUC(0-t) at 24 h [11]: 144 ng·h/mL; AUC(0-t) at 24 h [12]: 386 ng·h/mL; Activity (Rattus norvegicus [13]): Toxic; Activity (Rattus norvegicus [14]): Toxic; Activity (Rattus norvegicus [15]): Toxic; Activity (Rattus norvegicus [16]): Toxic; Activity (Rattus norvegicus [17]): Toxic; Activity (Rattus norvegicus [18]): Toxic; Activity (Rattus norvegicus [19]): Toxic; Activity (Rattus norvegicus [20]): 37%; Activity (Rattus norvegicus [21]): 66%; Activity (Rattus norvegicus [22]): 33%; Cp(f) (Plasma [23]): 0.4 nM |
| Cc1cc(-c2ccc(NS(=O)(=O)c3cc(Cl)cc(Cl)c3)cc2)ccn1 | 9800 | 4700 | 497 | > 399 | 720 | Kp at 2 h [1]: 0.1 |
| COc1cc(-c2ccnc(C)c2)ccc1NS(=O)(=O)c1cc(C(F)(F)F)cc(C(F)(F)F)c1 | 1900 | 2200 | 306 | > 399 | 1830 | – |
| Cc1noc(-c2ccc(NS(=O)(=O)c3cc(Cl)cc(Cl)c3)cc2)n1 | > 27000 | > 27000 | > 399 | > 399 | > 10000 | – |
| CCCc1cc(-c2ccc(NS(=O)(=O)c3cc(C(F)(F)F)cc(C(F)(F)F)c3)cc2)ccn1 | 1800 | > 27000 | 270 | 122 | 4060 | – |
| Cc1cc(-c2ccc(NC(=O)[C@H](CC(C)C)c3cccc(-c4ccc(N5CCOCC5)cc4)c3)cc2)ccn1 | – | – | – | – | 20 | concentration [24]: 2 nM; Cp(f) (Plasma [9]): 290 nM; Activity (Rattus norvegicus [7]): 27%; Papp [25]: < 1 ×10⁻⁶ cm/s |
| O=S(=O)(Nc1ccc(-c2nnco2)cc1)c1cc(Cl)cc(Cl)c1 | 15100 | 27000 | 94 | 287 | 2440 | Kp at 2 h [1]: 0.16 |
| O=S(=O)(Nc1ccc(-c2cnco2)cc1)c1cc(Cl)cc(Cl)c1 | 2900 | 1600 | 32 | 166 | 1540 | Kp at 2 h [1]: 0.03 |
| Cc1cc(-c2ccc(NC(=O)Cc3cc(C(F)(F)F)cc(C(F)(F)F)c3)cc2)ccn1 | 13000 | > 27000 | 18 | 22 | 460 | – |
| O=S(=O)(Nc1ccc(-c2cc[nH]n2)cc1)c1cc(Cl)cc(Cl)c1 | 11800 | 15300 | 384 | > 399 | > 10000 | – |
| CCc1cc(-c2ccc(NS(=O)(=O)c3cc(C(F)(F)F)cc(C(F)(F)F)c3)cc2)ccn1 | 700 | 12200 | 371 | 324 | 210 | – |
| O=S(=O)(Nc1ccc(-c2ccncc2)cc1)c1cc(Cl)cc(Cl)c1 | 200 | 600 | 35 | 85 | 2750 | Kp at 2 h [1]: 0.09 |
